Source: patent US9227953B2, “Crystal form” (Glaxo Group Limited, priority 2011, dated 2016)

Experiments:
Format in all cases: physicochemical
Dynamic Vapor Sorption = conditions: product of Example 1(d)
Protocol: The product was characterized in several ways and determined to be the form termed Form 1 rilapladib. It provided an XRPD pattern as represented in FIG. 3, a Raman spectrum as represented in FIG. 4, and a capillary melting point of 116-118° C.

[1] = chemical stability of the crystal form
[2] = relative thermodynamic stability of rilapladib crystal forms; conditions: compared with other crystalline forms of rilapladib

Row | Structure (SMILES) | hygroscopicity by Dynamic Vapor Sorption (Dynamic Vapor Sorption) | chemical stability [1] | thermodynamic stability [2]
1 | COCCN1CCC(N(Cc2ccc(-c3ccc(C(F)(F)F)cc3)cc2)C(=O)Cn2c(SCc3cccc(F)c3F)cc(=O)c3ccccc32)CC1 [Form 1 rilapladib, N-[1-(2-methoxyethyl)-piperidin-4-yl]-2-[2-(2,3-difluorobenzylthio)-4-oxo-4H-quinolin-1-yl]-N-(4′-trifluoromethylbiphenyl-4-ylmethyl)acetamide] | non-hygroscopic | – | –
2 | COCCN1CCC(N(Cc2ccc(-c3ccc(C(F)(F)F)cc3)cc2)C(=O)Cn2c(SCc3cccc(F)c3F)cc(=O)c3ccccc32)CC1 [rilapladib Form 3, N-[1-(2-methoxyethyl)-piperidin-4-yl]-2-[2-(2,3-difluorobenzylthio)-4-oxo-4H-quinolin-1-yl]-N-(4′-trifluoromethylbiphenyl-4-ylmethyl)acetamide] | – | very good chemical stability | more thermodynamically stable than Form 1 and Form 2
